Test results as given in US20060166900A1, “Salt of morphine-6-glucuronide” (CeNeS Limited, priority 2002, published 2006).

Columns and labels:
Assay type in all cases: physicochemical
[1] = Visual appearance on storage (Example 3)
Experimental: (§1) Each test material was stored between 2-8*C prior to placing on stability. Each material was sub-divided into 900 mg aliquots, transferred to brown opaque HDPE plastic bottles and flushed with Argon prior to sealing. Sufficient samples were provided for each time point as well as spares for each storage condition. The samples were placed in appropriate incubators previously commissioned at storage conditions 25° C./60% RH, 40° C./75% RH and 60° C.
The samples were stored for analysis according to the following table: […]

[2] = Water content by Karl Fisher analysis on storage (Example 3)
Experimental: Water content (% w/w) by Karl Fisher analysis
as §1
Water Content by Karl Fisher Analysis
Water content was determined in duplicate on an aliquot of equilibrated material (approximately 100 mg) using a Tritrino 720 KFS Titrator.

[3] = Stability indicating HPLC assay and related substances on storage (Example 3)
Experimental: Assay (% w/w) and related substances determination
as §1
Testing Procedures Test for Identity Content and Impurities
Testing was performed in duplicate (2×25 mg) in accordance with a stability indicating HPLC assay method. The assay results were reported as M6G as is, M6G as the anhydrous, solvent free material and the anhydrous solvent free material corrected for the salt form using the relevant conversion factor.

[4] = Colour of solution by visible spectrophotometry on storage (Example 3); conditions: 5% w/v solution in water
Experimental: Colour of solution by UV spectrophotometry.
as §1
Colour by Visible Spectrophotometry
A 5% w/v solution of test material was prepared in water and the absorbance measured at 420 nm in a 1 cm silica cell using a Unicam UV4 Visible/UV spectrophotometer.

## CN1CCC23c4c5ccc(O)c4OC2C(OC2OC(C(=O)O)C(O)C(O)C2O)C=CC3C1C5.CN1CCC23c4c5ccc(O)c4OC2C(OC2OC(C(=O)O)C(O)C(O)C2O)C=CC3C1C5.O=C(O)C=CC(=O)O (stereo not shown) [Morphine-6-glucuronide maleate]
[1]; 1 month, 25° C./60% RH
  Appearance: White crystalline powder
[1]; 1 month, 40° C./75% RH
  Appearance: Pale yellow crystalline powder
[1]; 1 month, 60° C.
  Appearance: Yellow crystalline powder
[1]; 3 months, 25° C./60% RH
  Appearance: Pale yellow crystalline powder
[1]; 3 months, 40° C./75% RH
  Appearance: Yellow crystalline powder
[1]; Initial
  Appearance: White crystalline powder
[2]; 1 month, 25° C./60% RH
  Moisture: 7.53 % w/w
[2]; 1 month, 40° C./75% RH
  Moisture: 7.60 % w/w
[2]; 1 month, 60° C.
  Moisture: 5.01 % w/w
[2]; 3 months, 25° C./60% RH
  Moisture: 7.14 % w/w
[2]; 3 months, 40° C./75% RH
  Moisture: 9.24 % w/w
[2]; Initial
  Moisture: 6.14 % w/w
[3]; 1 month, 25° C./60% RH
  Known Related Substances HN33177: 0.76%
  Known Related Substances HN67003: 0.17%
  Known Related Substances HN75083: 0.05%
  M6G Assay, Anhydrous basis: 86.66 % w/w
  M6G Assay, As is basis: 80.27 % w/w
  M6G Assay, Corrected for the salt form: 97.56 % w/w
  Total Known: 0.98%
  Total Related Substances: 1.39%
  Total Unknown: 0.41%
[3]; 1 month, 40° C./75% RH
  Known Related Substances HN33177: 0.65%
  Known Related Substances HN67003: 0.94%
  Known Related Substances HN75076: 0.03%
  Known Related Substances HN75083: 0.03%
  Known Related Substances Morphine: 0.12%
  M6G Assay, Anhydrous basis: 83.28 % w/w
  M6G Assay, As is basis: 77.07 % w/w
  M6G Assay, Corrected for the salt form: 93.75 % w/w
  Total Known: 1.77%
  Total Related Substances: 4.80%
  Total Unknown: 3.03%
[3]; 1 month, 60° C.
  Known Related Substances HN33177: 0.50%
  Known Related Substances HN67003: 1.20%
  Known Related Substances HN75076: 0.14%
  Known Related Substances HN75083: 0.02%
  Known Related Substances Morphine: 0.32%
  M6G Assay, Anhydrous basis: 80.36 % w/w
  M6G Assay, As is basis: 76.46 % w/w
  M6G Assay, Corrected for the salt form: 90.47 % w/w
  Total Known: 2.18%
  Total Related Substances: 6.09%
  Total Unknown: 3.91%
[3]; 3 months, 25° C./60% RH
  Known Related Substances HN33177: 0.52%
  Known Related Substances HN67003: 0.58%
  Known Related Substances HN75083: 0.06%
  Known Related Substances Morphine: 0.04%
  M6G Assay, Anhydrous basis: 85.11 % w/w
  M6G Assay, As is basis: 80.04 % w/w
  M6G Assay, Corrected for the salt form: 95.81 % w/w
  Total Known: 1.20%
  Total Related Substances: 3.55%
  Total Unknown: 2.35%
[3]; 3 months, 40° C./75% RH
  Known Related Substances HN33177: 0.50%
  Known Related Substances HN67003: 1.68%
  Known Related Substances HN75076: 0.40%
  Known Related Substances Morphine: 0.43%
  M6G Assay, Anhydrous basis: 78.73 % w/w
  M6G Assay, As is basis: 72.37 % w/w
  M6G Assay, Corrected for the salt form: 88.63 % w/w
  Total Known: 3.01%
  Total Related Substances: 9.94%
  Total Unknown: 6.93%
  drop in assay compared to the initial values: around 10%
[3]; Initial
  Known Related Substances HN33177: 0.76%
  Known Related Substances HN67003: 0.04%
  Known Related Substances HN75083: 0.05%
  M6G Assay, Anhydrous basis: 88.28 % w/w
  M6G Assay, As is basis: 83.61 % w/w
  M6G Assay, Corrected for the salt form: 99.40 % w/w
  Total Known: 0.85%
  Total Related Substances: 0.85%
  Total Unknown: 0.00%
[4]; 1 month, 25° C./60% RH
  Colour: 0.084 Abs@420 nm
[4]; 1 month, 40° C./75% RH
  Colour: 0.297 Abs@420 nm
[4]; 1 month, 60° C.
  Colour: 0.739 Abs@420 nm
[4]; 3 months, 25° C./60% RH
  Colour: 0.209 Abs@420 nm
[4]; 3 months, 40° C./75% RH
  Colour: 0.879 Abs@420 nm
[4]; Initial
  Colour: 0.017 Abs@420 nm
